Here are results for 32 compounds from the supplement of paper PMC3493320.

SMILES strings stand for the structures. Values joined by “and” are separate entries in the source; they are usually repeats but may differ in a detail not shown here. Equal values may be shown once.

Assay [1] deals with NCI-H295R. Nature of the assay: IC50 (antiproliferative, ATP content). Conditions: 48 h.
Assay [2] deals with NCI-H295R. Description: maximal response (efficacy) relative to DMSO (0%) and doxorubicin (-100%); higher = less growth inhibition. The following applies: 48 h.

As usually defined, the IC50 is the midpoint of a concentration-inhibition curve. With `O=C(OC[C@H]1O[C@@H](OC(=O)c2cc(O)c(O)c(OC(=O)c3cc(O)c(O)c(O)c3)c2)[C@H](OC(=O)c2cc(O)c(O)c(OC(=O)c3cc(O)c(O)c(O)c3)c2)[C@@H](OC(=O)c2cc(O)c(O)c(OC(=O)c3cc(O)c(O)c(O)c3)c2)[C@@H]1OC(=O)c1cc(O)c(O)c(OC(=O)c2cc(O)c(O)c(O)c2)c1)c1cc(O)c(O)c(OC(=O)c2cc(O)c(O)c(O)c2)c1`, the IC50 in the assay with NCI-H295R [1] amounted to 7.5 µM. In addition, the maximal response in the assay on NCI-H295R [2] was -122%.

Regarding `COc1cccc2c1C(=O)c1c(O)c3c(c(O)c1C2=O)C[C@@](O)(C(C)=O)C[C@@H]3O[C@H]1C[C@H](N)[C@H](O)[C@H](C)O1`, the IC50 in the assay with NCI-H295R [1] amounted to 10.6 µM. Also, the maximal response with NCI-H295R [2] is -126%.

On to `CC(C)C[C@H](NC(=O)[C@H](Cc1ccccc1)NC(=O)c1cnccn1)B(O)O`, for which, in the assay with NCI-H295R [1], the IC50 is 0.299 µM and 0.335 µM. For the same compound, the maximal response with NCI-H295R [2] was -74.3% and -77.1%.

In the case of `O=C1C(=O)c2ncccc2-c2cccnc21`, the IC50 in the assay with NCI-H295R [1] was 3.76 µM. Moreover, the maximal response in the assay with NCI-H295R [2] is -63%.

With `CCN1/C(=C\C=C\c2ccc3ccccc3[n+]2CC)C=Cc2ccccc21.[I-]`, the IC50 with NCI-H295R [1] amounted to 23.7 µM. Moreover, the maximal response with NCI-H295R [2] was -134%.

Consider `O=[N+]([O-])c1ccc(O)c2ncccc12`, for which, in the assay with NCI-H295R [1], the IC50 came to 3.35 µM. Further, in the assay on NCI-H295R [2], the maximal response is -85.4%.

In turn, `CCOC(=O)N1CCC(=C2c3ccc(Cl)cc3CCc3cccnc32)CC1` returned an IC50 with NCI-H295R [1] of 29.9 µM. Besides, the maximal response in the assay on NCI-H295R [2] is -151%.

`COc1cc(NCc2ccc3nc(N)nc(N)c3c2C)cc(OC)c1OC.Cl.Cl.Cl` yielded an IC50 in the assay with NCI-H295R [1] of 0.0133 µM. Besides, in the assay on NCI-H295R [2], the maximal response was -80.4%.

On to `COCC(=O)Nc1cc(Sc2ccccc2)ccc1N=C(NC(=O)OC)NC(=O)OC`, for which the half-inhibitory concentration (IC50) with NCI-H295R [1] was 8.41 µM. Moreover, the maximal response with NCI-H295R [2] is -64.1%.

In the assay on NCI-H295R [1], `Nc1ccc2cc3ccc(N)cc3nc2c1.Nc1ccc2cc3ccc(N)cc3nc2c1.O=S(=O)(O)O` showed an IC50 of 18.8 µM. The maximal response in the assay with NCI-H295R [2] was -138%.

The compound `O=S(=O)([O-])c1cc(O)c2c(N=Nc3ccc(Nc4ccccc4)c4c(S(=O)(=O)[O-])cccc34)cc(S(=O)(=O)[O-])cc2c1.[Na+].[Na+].[Na+]` yielded an IC50 in the assay with NCI-H295R [1] of 11.9 µM. For the same compound, the maximal response in the assay with NCI-H295R [2] was -73.8%.

The compound `COc1cc(N[S+](C)(=O)[O-])ccc1Nc1c2ccccc2nc2ccccc12` displayed an IC50 with NCI-H295R [1] of 3.76 µM. The maximal response in the assay with NCI-H295R [2] is -65.5%.

`CCCCCCCCCCC[C@@H](C[C@@H]1OC(=O)[C@H]1CCCCCC)OC(=O)C(CC(C)C)NC=O` (some centres undefined): the IC50 in the assay on NCI-H295R [1] was determined as 9.44 µM. In addition, in the assay with NCI-H295R [2], the maximal response was -66.3%.

`CC(C)(O)c1ccccc1CC[C@@H](SCC1(CC(=O)[O-])CC1)c1cccc(/C=C/c2ccc3ccc(Cl)cc3n2)c1.[Na+]`: the IC50 in the assay on NCI-H295R [1] is 16.8 µM. Besides, in the assay with NCI-H295R [2], the maximal response is -142%.

On to `CCCCCCCCCCCCCCCCOCCOCCOCCOCCOCCOCCOCCOCCOCCOCCOCCOCCOCCOCCOCCOCCOCCOCCOCCOCCO`, for which, in the assay with NCI-H295R [1], the IC50 amounted to 13.3 µM. Also, the maximal response in the assay on NCI-H295R [2] is -124%.

Consider `C=C1/C(=C\C=C2/CCC[C@]3(C)[C@@H]([C@H](C)CCCC(C)(C)O)CC[C@@H]23)C[C@@H](O)C[C@@H]1O`, for which, in the assay on NCI-H295R [1], the IC50 turned out to be 18.8 µM. Besides, the maximal response with NCI-H295R [2] is -140%.

Compound `C[C@]12O[C@H](C[C@]1(O)CO)n1c3ccccc3c3c4c(c5c6ccccc6n2c5c31)CNC4=O` yielded an IC50 with NCI-H295R [1] of 18.8 µM. Further, in the assay on NCI-H295R [2], the maximal response was -150%.

`Cc1cc2c(C(C)C)c(O)c(O)c(C=O)c2c(O)c1-c1c(C)cc2c(C(C)C)c(O)c(O)c(C=O)c2c1O`: in the assay on NCI-H295R [1], the IC50 was determined as 10.6 µM. In the assay on NCI-H295R [2], the maximal response is -127%.

As to `COc1ccc(-c2ccc3cc(C(=O)O)ccc3c2)cc1C12CC3CC(CC(C3)C1)C2`, the IC50 with NCI-H295R [1] came out at 6.68 µM. For the same compound, in the assay with NCI-H295R [2], the maximal response was -122%.

As for `COC(C(=O)C(O)C(C)O)C1Cc2cc3cc(OC4CC(OC5CC(O)C(O)C(C)O5)C(O)C(C)O4)c(C)c(O)c3c(O)c2C(=O)C1OC1CC(OC2CC(OC3CC(C)(O)C(O)C(C)O3)C(O)C(C)O2)C(O)C(C)O1` (centres undefined), the IC50 in the assay on NCI-H295R [1] turned out to be 1.19 µM. Also, the maximal response in the assay with NCI-H295R [2] is -125%.

In turn, `CC(C)CCC[C@@H](C)[C@H]1CC(=O)C2=C3CC[C@H]4C[C@@H](O)CC[C@]4(C)[C@H]3CC[C@@]21C` had an IC50 in the assay with NCI-H295R [1] of 8.41 µM. In addition, in the assay with NCI-H295R [2], the maximal response was -65%.

The compound `CN(C)c1ccc2nc3ccc(N(C)C)cc3[s+]c2c1.[Cl-]` returned an IC50 in the assay on NCI-H295R [1] of 15 µM. The maximal response in the assay on NCI-H295R [2] was -109%.

For the compound `CC(C)=CCOc1ccc(C=CC(=O)c2ccc(OCC=C(C)C)cc2OCC(=O)O)cc1`, the IC50 in the assay with NCI-H295R [1] came out at 23.7 µM. The maximal response in the assay on NCI-H295R [2] was -145%.

For the compound `C=CCNC1=C2C[C@@H](C)C[C@H](OC)[C@H](O)[C@@H](C)/C=C(\C)[C@H](OC(N)=O)[C@@H](OC)/C=C\C=C(/C)C(=O)NC(=CC1=O)C2=O`, in the assay with NCI-H295R [1], the IC50 came out at 8.41 µM. In addition, the maximal response with NCI-H295R [2] was -105%.

The compound `O.O.[Na+].[Na+].[O]=[Cr](=[O])([O-])[O][Cr](=[O])(=[O])[O-]` returned an IC50 in the assay with NCI-H295R [1] of 11.9 µM. Besides, in the assay with NCI-H295R [2], the maximal response is -147%.

`[O-]n1ccccc1=S.[O-]n1ccccc1=S.[Zn+2]`: the IC50 in the assay on NCI-H295R [1] was 2.66 µM. Besides, the maximal response in the assay with NCI-H295R [2] was -125%.

In turn, `Cl.Nc1c2ccccc2nc2ccccc12.O` registered an IC50 with NCI-H295R [1] of 18.8 µM. Also, the maximal response with NCI-H295R [2] was -131%.

As to `CC(=O)[C@]1(O)Cc2c(O)c3c(c(O)c2[C@@H](O[C@H]2C[C@H](N)[C@H](O)[C@H](C)O2)C1)C(=O)c1ccccc1C3=O.Cl`, the IC50 in the assay with NCI-H295R [1] turned out to be 1.68 µM. Also, in the assay on NCI-H295R [2], the maximal response is -121%.

Compound `CC(C)C[C@@H]1NC(=O)[C@H](CCCN)NC(=O)[C@H](C(C)C)NC(=O)[C@@H]2CCCN2C(=O)[C@@H](Cc2ccccc2)NC(=O)[C@H](CC(C)C)NC(=O)[C@H](CCCN)NC(=O)[C@H](C(C)C)NC(=O)[C@@H]2CCCN2C(=O)[C@@H](Cc2ccccc2)NC1=O` came in with an IC50 in the assay on NCI-H295R [1] of 8.41 µM. The maximal response with NCI-H295R [2] was -121%.

Take `COc1cc(-c2ccc(-[n+]3nc(-c4ccccc4)nn3-c3ccc([N+](=O)[O-])cc3)c(OC)c2)ccc1-[n+]1nc(-c2ccccc2)nn1-c1ccc([N+](=O)[O-])cc1.[Cl-].[Cl-]`: the IC50 in the assay on NCI-H295R [1] was determined as 10.6 µM. In the assay on NCI-H295R [2], the maximal response was -132%.

In the case of `OC[C@H]1O[C@@H](n2cnc3c(S)ncnc32)[C@H](O)[C@@H]1O`, the IC50 with NCI-H295R [1] came out at 2.99 µM. The maximal response in the assay on NCI-H295R [2] was -68.2%.

Consider `O=C1OCCN1/N=C/c1ccc([N+](=O)[O-])o1`, for which the IC50 in the assay on NCI-H295R [1] was 16.8 µM. In the assay with NCI-H295R [2], the maximal response was -72.7%.
